According to US8415469B2, “Compounds and methods for kinase modulation, and indications therefor” (Plexxikon Inc., priority 2005, dated 2013):
pIC50: −log10 of the molar value.

Tests used:
Assay type in all cases: biochemical
Jnk3 = molecular target: T1, Jnk3 (Homo sapiens, UniProt P53779); assay: AlphaScreen kinase assay, Jnk3; conditions: read-out: IC50, activity toward kinase Jnk3
T1 construct: purchased Upstate Biotechnology

Kit = molecular target: T2, Kit (Homo sapiens, UniProt P10721); assay: AlphaScreen kinase assay, Kit; conditions: read-out: IC50, activity toward kinase Kit
T2 construct: P1332.N6 BI PTP KIT M552-K948-X COD; His6 (N); made in house; host or cells: E. coli (PTP1B co-expressed)

Fms = molecular target: T3, Fms (Homo sapiens, UniProt P07333); assay: AlphaScreen kinase assay, Fms; conditions: read-out: IC50, activity toward kinase Fms
T3 construct: purchased Upstate Biotechnology

Flt1 = molecular target: T4, Flt1 (Homo sapiens, UniProt P17948); assay: AlphaScreen kinase assay, Flt1; conditions: read-out: IC50, activity toward kinase Flt1
T4 construct: P1826.pETN6 BI-PTP FLT1 M799-D1165-X WT; His6 (N); made in house; host or cells: E. coli (PTP1B co-expressed)
T4 sequence (P17948 with tags, fused parts or gaps): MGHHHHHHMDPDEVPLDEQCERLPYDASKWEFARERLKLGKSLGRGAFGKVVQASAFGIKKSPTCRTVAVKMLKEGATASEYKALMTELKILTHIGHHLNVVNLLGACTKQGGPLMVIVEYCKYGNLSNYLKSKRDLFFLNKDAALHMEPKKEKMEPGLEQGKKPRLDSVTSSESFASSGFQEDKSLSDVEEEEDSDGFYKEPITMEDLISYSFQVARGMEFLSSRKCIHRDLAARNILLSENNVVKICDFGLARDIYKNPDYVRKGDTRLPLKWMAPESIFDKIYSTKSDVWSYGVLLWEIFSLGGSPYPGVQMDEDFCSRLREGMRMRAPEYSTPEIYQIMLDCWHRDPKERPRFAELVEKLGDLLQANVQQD

B-Raf V600E = molecular target: T5, B-Raf V600E (Homo sapiens, UniProt P15056, V600E); assay: AlphaScreen kinase assay, B-Raf V600E; conditions: read-out: IC50, activity toward kinase B-Raf V600E
T5 construct: P4254. pFastBacBD-CDC37 BRAF D437-K722-X, V600E; His6 with pFastBac HT leader (TEV site) (N); made in house; host or cells: Sf9 (baculovirus; chaperone CDC37 co-expressed)

Ret = molecular target: T6, Ret (Homo sapiens, UniProt P07949); assay: AlphaScreen kinase assay, Ret; conditions: read-out: IC50, activity toward kinase Ret
T6 construct: P1378.pET-SF BI-PTP RET H661-R1012 HIS; made in house
T6 sequence (P07949 with tags, fused parts or gaps): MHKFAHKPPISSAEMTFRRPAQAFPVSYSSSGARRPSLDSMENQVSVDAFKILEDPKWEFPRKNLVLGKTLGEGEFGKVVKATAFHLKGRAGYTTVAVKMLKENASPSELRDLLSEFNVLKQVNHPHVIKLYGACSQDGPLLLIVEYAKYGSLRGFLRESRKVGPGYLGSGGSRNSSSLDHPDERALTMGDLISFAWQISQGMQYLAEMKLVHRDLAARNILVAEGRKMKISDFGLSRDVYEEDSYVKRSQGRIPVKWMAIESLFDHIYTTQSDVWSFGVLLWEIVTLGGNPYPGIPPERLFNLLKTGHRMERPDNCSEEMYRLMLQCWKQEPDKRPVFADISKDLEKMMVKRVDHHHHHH

FGFR1 = molecular target: T7, FGFR1 (Homo sapiens, UniProt P11362, C488A/C584S); assay: AlphaScreen kinase assay, FGFR1; conditions: read-out: IC50, activity toward kinase FGFR
T7 construct: P1351.pET N6 BI-PTP FGFR A458-E765-X C488A, C584S; made in house; host or cells: E. coli (PTP1B co-expressed)

B-Raf = molecular target: T8, B-Raf (Homo sapiens, UniProt P15056); assay: AlphaScreen kinase assay, B-Raf; conditions: read-out: IC50, activity toward kinase B-Raf
T8 construct: purchased Upstate Biotechnology

Kdr = molecular target: T9, Kdr (Homo sapiens, UniProt P35968); assay: Z'-Lyte FRET kinase assay (Invitrogen), Kdr; conditions: read-out: IC50, activity toward kinase Kdr
T9 construct: purchased Invitrogen (assay run by Invitrogen)

Measured: pIC50

T7 sequence (P11362 458-765 C488A/C584S): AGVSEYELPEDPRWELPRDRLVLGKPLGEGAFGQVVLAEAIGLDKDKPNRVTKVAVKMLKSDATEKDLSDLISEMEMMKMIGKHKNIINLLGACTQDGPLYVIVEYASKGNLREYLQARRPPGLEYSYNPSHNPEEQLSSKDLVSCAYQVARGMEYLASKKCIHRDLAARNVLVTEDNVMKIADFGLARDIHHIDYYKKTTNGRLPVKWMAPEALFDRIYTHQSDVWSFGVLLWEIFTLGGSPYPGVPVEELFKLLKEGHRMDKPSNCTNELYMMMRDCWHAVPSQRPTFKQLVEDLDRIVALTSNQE
T1 sequence (P53779 whole entry): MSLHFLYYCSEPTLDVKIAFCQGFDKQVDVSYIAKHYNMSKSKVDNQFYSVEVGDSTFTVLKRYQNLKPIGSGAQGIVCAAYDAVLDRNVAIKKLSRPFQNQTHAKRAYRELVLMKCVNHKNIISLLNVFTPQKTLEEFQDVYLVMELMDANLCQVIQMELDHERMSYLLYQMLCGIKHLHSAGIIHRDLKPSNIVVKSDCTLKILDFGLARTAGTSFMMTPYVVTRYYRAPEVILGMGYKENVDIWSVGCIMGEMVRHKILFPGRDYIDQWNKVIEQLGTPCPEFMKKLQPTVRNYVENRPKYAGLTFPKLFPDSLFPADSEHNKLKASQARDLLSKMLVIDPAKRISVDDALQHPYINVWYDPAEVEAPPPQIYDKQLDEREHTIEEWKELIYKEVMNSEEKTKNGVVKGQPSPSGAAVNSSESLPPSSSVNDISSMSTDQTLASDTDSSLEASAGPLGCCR
T3 sequence (P07333 20-972): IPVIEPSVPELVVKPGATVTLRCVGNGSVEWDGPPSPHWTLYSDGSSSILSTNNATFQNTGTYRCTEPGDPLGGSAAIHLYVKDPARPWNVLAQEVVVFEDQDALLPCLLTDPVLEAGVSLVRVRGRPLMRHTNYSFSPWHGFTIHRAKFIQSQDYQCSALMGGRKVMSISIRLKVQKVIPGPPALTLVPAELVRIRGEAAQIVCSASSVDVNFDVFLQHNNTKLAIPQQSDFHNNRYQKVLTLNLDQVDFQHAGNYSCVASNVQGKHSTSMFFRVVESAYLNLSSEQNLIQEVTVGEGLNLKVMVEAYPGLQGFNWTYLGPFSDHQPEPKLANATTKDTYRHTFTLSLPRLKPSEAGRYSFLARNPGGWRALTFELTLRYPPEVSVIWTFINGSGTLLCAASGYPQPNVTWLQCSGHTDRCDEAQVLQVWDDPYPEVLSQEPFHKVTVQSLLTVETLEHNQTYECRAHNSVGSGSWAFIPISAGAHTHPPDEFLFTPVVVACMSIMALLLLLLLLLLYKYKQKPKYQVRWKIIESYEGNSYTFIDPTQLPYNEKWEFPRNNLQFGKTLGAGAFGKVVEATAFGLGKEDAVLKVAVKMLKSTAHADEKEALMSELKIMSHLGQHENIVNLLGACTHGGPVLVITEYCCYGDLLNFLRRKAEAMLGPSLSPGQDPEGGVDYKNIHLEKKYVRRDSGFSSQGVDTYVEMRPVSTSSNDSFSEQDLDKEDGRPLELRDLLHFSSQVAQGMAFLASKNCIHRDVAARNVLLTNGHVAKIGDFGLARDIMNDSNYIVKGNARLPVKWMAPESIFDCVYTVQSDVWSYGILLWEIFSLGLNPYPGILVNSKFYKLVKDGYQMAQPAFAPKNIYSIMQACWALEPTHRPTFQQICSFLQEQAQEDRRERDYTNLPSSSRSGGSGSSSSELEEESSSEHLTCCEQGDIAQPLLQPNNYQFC
T2 sequence (P10721 with tags, fused parts or gaps): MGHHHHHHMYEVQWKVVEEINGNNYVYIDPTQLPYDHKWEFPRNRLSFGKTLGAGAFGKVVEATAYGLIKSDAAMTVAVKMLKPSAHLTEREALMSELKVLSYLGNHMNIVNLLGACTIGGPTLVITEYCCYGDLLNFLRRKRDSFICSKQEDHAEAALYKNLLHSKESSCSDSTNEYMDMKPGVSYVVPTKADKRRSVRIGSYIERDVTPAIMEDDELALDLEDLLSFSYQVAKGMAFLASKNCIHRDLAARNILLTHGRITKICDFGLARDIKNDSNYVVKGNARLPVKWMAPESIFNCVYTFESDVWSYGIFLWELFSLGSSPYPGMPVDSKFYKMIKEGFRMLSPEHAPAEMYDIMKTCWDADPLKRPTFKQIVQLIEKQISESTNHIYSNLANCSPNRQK
T8 sequence (P15056 whole entry): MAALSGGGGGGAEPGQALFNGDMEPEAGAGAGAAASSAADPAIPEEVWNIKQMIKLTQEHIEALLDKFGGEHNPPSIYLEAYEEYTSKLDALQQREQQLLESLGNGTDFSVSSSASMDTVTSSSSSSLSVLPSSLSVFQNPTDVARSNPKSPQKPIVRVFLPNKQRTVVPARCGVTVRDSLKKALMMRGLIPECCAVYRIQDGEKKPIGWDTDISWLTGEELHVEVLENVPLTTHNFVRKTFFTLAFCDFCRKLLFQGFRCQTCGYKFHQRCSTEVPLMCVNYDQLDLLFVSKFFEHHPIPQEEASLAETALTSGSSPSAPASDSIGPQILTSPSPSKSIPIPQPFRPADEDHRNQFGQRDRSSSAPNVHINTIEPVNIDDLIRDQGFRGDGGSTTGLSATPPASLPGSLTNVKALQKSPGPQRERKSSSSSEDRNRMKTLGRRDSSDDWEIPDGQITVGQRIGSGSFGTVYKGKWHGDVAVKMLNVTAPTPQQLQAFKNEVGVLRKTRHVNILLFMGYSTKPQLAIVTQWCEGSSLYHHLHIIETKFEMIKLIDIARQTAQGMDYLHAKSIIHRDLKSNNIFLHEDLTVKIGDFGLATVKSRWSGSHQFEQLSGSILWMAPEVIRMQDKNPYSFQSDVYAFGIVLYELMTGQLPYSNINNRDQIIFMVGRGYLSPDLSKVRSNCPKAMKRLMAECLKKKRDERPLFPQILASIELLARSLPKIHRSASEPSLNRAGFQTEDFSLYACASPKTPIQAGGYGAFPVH
T5 sequence (P15056 with tags, fused parts or gaps V600E): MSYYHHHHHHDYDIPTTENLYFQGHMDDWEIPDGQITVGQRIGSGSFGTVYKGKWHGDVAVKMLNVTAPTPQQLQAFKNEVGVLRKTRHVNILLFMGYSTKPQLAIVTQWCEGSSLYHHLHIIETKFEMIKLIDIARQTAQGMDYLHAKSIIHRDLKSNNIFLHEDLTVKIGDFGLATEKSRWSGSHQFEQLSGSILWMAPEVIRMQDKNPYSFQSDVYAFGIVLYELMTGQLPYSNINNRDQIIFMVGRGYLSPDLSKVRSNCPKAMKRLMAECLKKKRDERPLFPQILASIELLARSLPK
T9 sequence (P35968 20-1356): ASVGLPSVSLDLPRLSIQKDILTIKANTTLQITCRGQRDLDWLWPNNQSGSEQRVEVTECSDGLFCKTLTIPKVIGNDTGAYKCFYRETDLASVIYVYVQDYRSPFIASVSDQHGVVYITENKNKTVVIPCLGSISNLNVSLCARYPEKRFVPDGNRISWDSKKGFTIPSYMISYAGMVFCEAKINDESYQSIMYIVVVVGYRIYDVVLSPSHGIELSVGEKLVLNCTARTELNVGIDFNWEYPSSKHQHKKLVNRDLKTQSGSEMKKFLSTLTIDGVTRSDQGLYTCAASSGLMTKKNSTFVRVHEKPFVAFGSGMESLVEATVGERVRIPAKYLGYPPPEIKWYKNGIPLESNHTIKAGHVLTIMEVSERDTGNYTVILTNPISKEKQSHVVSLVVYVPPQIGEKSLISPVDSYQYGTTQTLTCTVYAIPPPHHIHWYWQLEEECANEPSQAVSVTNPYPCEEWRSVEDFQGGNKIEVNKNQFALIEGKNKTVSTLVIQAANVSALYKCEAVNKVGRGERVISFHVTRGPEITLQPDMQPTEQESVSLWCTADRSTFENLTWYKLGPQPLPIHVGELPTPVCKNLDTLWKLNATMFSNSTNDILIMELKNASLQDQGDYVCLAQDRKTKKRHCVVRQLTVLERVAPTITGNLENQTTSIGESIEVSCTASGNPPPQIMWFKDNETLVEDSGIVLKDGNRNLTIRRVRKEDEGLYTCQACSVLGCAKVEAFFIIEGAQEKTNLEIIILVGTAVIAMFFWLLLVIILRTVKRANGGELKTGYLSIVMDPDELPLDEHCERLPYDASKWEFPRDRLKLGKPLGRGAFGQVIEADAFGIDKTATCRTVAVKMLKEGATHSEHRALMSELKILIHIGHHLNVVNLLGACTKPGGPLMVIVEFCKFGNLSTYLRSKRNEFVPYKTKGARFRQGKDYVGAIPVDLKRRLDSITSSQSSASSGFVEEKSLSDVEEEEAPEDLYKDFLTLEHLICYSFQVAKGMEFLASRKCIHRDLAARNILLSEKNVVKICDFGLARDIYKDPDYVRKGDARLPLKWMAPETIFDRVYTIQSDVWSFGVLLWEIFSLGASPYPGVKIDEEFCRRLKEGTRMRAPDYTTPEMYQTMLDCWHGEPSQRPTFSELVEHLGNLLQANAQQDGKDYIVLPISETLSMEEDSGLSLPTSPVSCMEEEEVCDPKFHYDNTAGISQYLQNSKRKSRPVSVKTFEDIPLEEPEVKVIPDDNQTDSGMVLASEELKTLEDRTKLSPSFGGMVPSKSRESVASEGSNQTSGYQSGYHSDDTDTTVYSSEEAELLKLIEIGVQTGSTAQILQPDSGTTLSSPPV

CC(=O)Nc1cccc(Nc2cnc3[nH]ccc3c2)c1 [Compound P-1032]
≥ 5.00: Jnk3

COc1ccc(Nc2ccc3cc[nH]c3n2)cc1 [Compound P-1355, (4-Methoxy-phenyl)-(1H-pyrrolo[2,3-b]pyridin-6-yl)-amine]
≥ 5.00: Jnk3

Clc1cccc(Nc2c[nH]c3ncccc23)c1 [Compound P-1489, (3-Chloro-phenyl)-(1H-pyrrolo[2,3-b]pyridin-3-yl)-amine]
≥ 5.00: Jnk3 | Kit | Fms

c1ccc(COc2ccccc2Nc2c[nH]c3ncccc23)cc1 [Compound P-1505, (2-Benzyloxy-phenyl)-(1H-pyrrolo[2,3-b]pyridin-3-yl)-amine]
≥ 5.00: Jnk3 | Flt1 | Kit | Fms | B-Raf V600E

COc1cccc(C(=O)c2c[nH]c3ncc(-c4ccccc4)cc23)c1 [Compound P-0371]
≥ 5.00: Jnk3 | Flt1 | Ret | Kit | FGFR1

Oc1cccc(C(O)c2c[nH]c3ncc(-c4cccs4)cc23)c1 (centres unmarked) [Compound P-0710]
≥ 5.00: Jnk3 | Ret | FGFR1 | B-Raf V600E

c1ccc2sc(-c3cnc4[nH]ccc4c3)cc2c1 [Compound P-1087]
≥ 5.00: Jnk3

c1cncc(-c2cnc3[nH]cc(Cc4ccc5c(c4)OCCO5)c3c2)c1 [Compound P-1529, 3-(2,3-Dihydro-benzo[1,4]dioxin-6-ylmethyl)-5-pyridin-3-yl-1H-pyrrolo[2,3-b]pyridine]
not listed: Ret | Kdr
≥ 5.00: all other assays above

COc1cnc2[nH]cc(Sc3ccccn3)c2c1 [Compound P-1561]
≥ 5.00: Jnk3 | FGFR1 | B-Raf V600E

O=C(Nc1cccc(F)c1)Nc1cccc(C(=O)c2c[nH]c3ncccc23)c1 [Compound P-1716, 1-(3-Fluoro-phenyl)-3-[3-(1H-pyrrolo[2,3-b]pyridine-3-carbonyl)-phenyl]-urea]
≥ 5.00: Jnk3 | B-Raf | Fms | B-Raf V600E

NC(=O)c1ccc(-c2cnc3[nH]ccc3c2)cc1 [Compound P-0659]
≥ 5.00: Jnk3 | Ret | Kit

Clc1ccc(-c2cnc3[nH]ccc3c2)s1 [Compound P-1088]
≥ 5.00: Jnk3

O=C(c1ccc(-c2cnc3[nH]ccc3c2)cc1)N1CCCC1 [Compound P-0625]
≥ 5.00: Jnk3 | Kit

O=C(Nc1ccc(F)cc1)Nc1cccc(C(=O)c2c[nH]c3ncccc23)c1 [Compound P-1704, 1-(4-Fluoro-phenyl)-3-[3-(1H-pyrrolo[2,3-b]pyridine-3-carbonyl)-phenyl]-urea]
≥ 5.00: Jnk3 | Kit | B-Raf | Fms | B-Raf V600E

COc1ccc(F)c(C(=O)c2c[nH]c3ncccc23)c1 [Compound P-0103]
not listed: Jnk3 | B-Raf V600E | B-Raf
≥ 5.00: all other assays above

O=C(c1ccccc1O)c1c[nH]c2ncc(-c3cccs3)cc12 [Compound P-0757]
≥ 5.00: Jnk3 | Flt1 | Ret | Kit

O=C(c1ccccc1O)c1c[nH]c2ncc(Br)cc12 [Compound P-0263]
≥ 5.00: Jnk3 | Kit

O=C(Nc1ccccc1)Nc1cccc(C(=O)c2c[nH]c3ncccc23)c1 [Compound P-1703, 1-Phenyl-3-[3-(1H-pyrrolo[2,3-b]pyridine-3-carbonyl)-phenyl]-urea]
≥ 5.00: Jnk3 | Kit | B-Raf | Fms | B-Raf V600E

COc1cccc(Nc2c[nH]c3ncccc23)c1 [Compound P-1490, (3-Methoxy-phenyl)-(1H-pyrrolo[2,3-b]pyridin-3-yl)-amine]
≥ 5.00: Jnk3 | Kit | Fms
